In patent publication US4456593A, “Ristocetin .psi.-aglycone as an antibacterial agent” (Abbott Laboratories, priority 1982, dated 1984):
Values joined by “and” are separate entries in the source; they are usually repeats but may differ in a detail not shown here. Equal entries are not always repeated.

Assays:
[1] = test system: S. aureus; test: Anti-infective Test - Cure of Acute Mouse Bacterial Infection (mouse protection), S. aureus; format: in vivo; settings: for CD50 (curative dose50, total dose required to cure half the animals): dosed 1 and 5 hours post-infection, 95 percent confidence limits in brackets
Method: (§1) Anti-infective Test--Cure of Acute Mouse Bacterial Infection
(§2) To determine the ability of potential anti-microbial agents to cure mice of an otherwise lethal infection.
Bacterial strains used in this test have been previously tested and, if necessary, adapted to mice and are maintained on brain heart infusion (BHI) agar slants at 4° C. Tubes of BHI broth are inoculated from the slants and incubated for 18 hours at 37° C. Serial ten-fold dilutions of this culture are made in BHI broth. The bacterial suspensions used to infect mice are obtained by making the final ten-fold dilution in 5 percent aqueous hog gastric mucin (American Laboratories Incorporated). Mice are infected by an intraperitoneal injection of 0.75 ml. of the resulting suspension. The dilution of test organism selected (standard inoculum) is based on prior experience with that organism and is usually 10-100-fold more concentrated than the LD50 dilution, i.e., that concentration which when administered as described above causes 50 percent mortalities.
The antimicrobial test substance is dissolved at the desired concentration in a suitable vehicle (sterile water, unless otherwise specified) and four serial, two-fold dilutions of this solution are made with the vehicle.
In dosing the animals, all mice are considered to weigh 20 grams. The volume administered is always 0.5 ml. at 1 and 5 hours post-infection (total of 1.0 ml.), with half of the total dose given at each time.
Administration of Test Substances:
The test substance may be administered by any of the following routes:
2. Subcutaneously, at the nape of the neck,
3. Intramuscularly in the thigh,
4. Intravenously in the tail vein.
Female Swiss albino mice weighing 18 to 20 grams are divided randomly into groups of ten animals and housed one group to a cage. Food (standard mouse pellets) and water are supplied ad lib throughout the test. All animals are sacrificed at the conclusion of the test.
Group T0 is neither infected nor treated, but is observed for seven days. If more than one mortality occurs in this group, the data will be reviewed to determine is there is cause to invalidate the test.
Groups T1 through T4 are used to monitor the strength of the infection actually used in this experiment. These groups are infected but untreated. Group T1 is infected with the standard inoculum, and groups T2 through T4 are infected with successive ten-fold dilutions of the organism prepared such that only the final dilution in each case is made with 5 percent aqueous hog gastric mucin. These groups are observed for seven days, mortalities are recorded and used to determine the number of challenge LD50's (within ten-fold limits) present in the standard inoculum used to infect medicated groups of animals.
Groups T5 through T9 are infected intraperitoneally with the standard inoculum. Each group is treated with one of the two-fold dilutions of the test substance by a specified route of administration at 1 hour and 5 hours post infection. The animals are observed for seven days and mortalities are recorded.
Further sets of five groups of animals are infected and treated in the same manner as groups T5 through T9 for each additional test substance studied.
CD50's (the total dose, in mg./kg., required to cure half the animals) are calculated by standard statistical methods and are reported with 95 percent confidence limits where these are obtainable or annotated with PS (poor slope) where they are not.
This test is performed in primary and secondary variations. […]

[2] = test system: E. coli (J); test: Anti-infective Test - Cure of Acute Mouse Bacterial Infection (mouse protection), E. coli; format: in vivo; settings: E. coli (J) intraperitoneal infection in female Swiss albino mice; route I.V.; dosed 1 and 5 hours post-infection; observed seven days
Method: as §1, §2
Bacterial strains used in this test have been previously tested and, if necessary, adapted to mice and are maintained on brain heart infusion (BHI) agar slants at 4° C. Tubes of BHI broth are inoculated from the slants and incubated for 18 hours at 37° C. Serial ten-fold dilutions of this culture are made in BHI broth. The bacterial suspensions used to infect mice are obtained by making the final ten-fold dilution in 5 percent aqueous hog gastric mucin (American Laboratories Incorporated). […]
Groups T1 through T4 are used to monitor the strength of the infection actually used in this experiment. […] These groups are observed for seven days, mortalities are recorded and used to determine the number of challenge LD50's (within ten-fold limits) present in the standard inoculum used to infect medicated groups of animals.
Groups T5 through T9 are infected intraperitoneally with the standard inoculum. […] The animals are observed for seven days and mortalities are recorded. […]
CD50's (the total dose, in mg./kg., required to cure half the animals) are calculated by standard statistical methods and are reported with 95 percent confidence limits where these are obtainable or annotated with PS (poor slope) where they are not. […]

[3] = S. aureus (S) intraperitoneal infection in female Swiss albino mice, route I.V., observed seven days

Row | Molecule | Percent Surviving Mice With Varying Drug Dose ([1]; S. aureus (S) infection in mice, route I.V., dose of this cell not printed as text) [%] | CD50 (curative dose50, total dose required to cure half the animals) ([1]; S. aureus (SC) intraperitoneal infection in female Swiss albino mice, route cell is a drawing (not readable)) | CD50 (curative dose50, total dose required to cure half the animals) [2] [mg/kg] | CD50 (curative dose50, total dose required to cure half the animals) [1, 3] | CD50 (curative dose50, total dose required to cure half the animals) ([1]; S. aureus (S) intraperitoneal infection in female Swiss albino mice, route S.C., observed seven days)
1 | COC(=O)[C@H]1NC(=O)[C@H]2NC(=O)[C@H](NC(=O)[C@@H]3NC(=O)[C@H]4NC(=O)[C@H](NC(=O)[C@H](N)c5ccc(O)c(c5)Oc5cc4cc(O)c5C)[C@H](O)c4ccc(cc4)Oc4cc3cc(c4O)Oc3ccc(cc3)[C@H]2O)c2ccc(O)c(c2)-c2c(O)cc(O)cc21 [Compound 2, Ristocetin aglycone] | 90 | 2.7 (1.8-4.1) mg./kg. | 50 | – | –
2 | O--demethylristocetin aglycone [Compound 3] | – | – | – | 9.3 (5.9-17.3) mg./kg. | –
3 | Ristocetin [Compound 1] | – | – | 50 | 4.1 mg./kg. and 6.6 mg./kg. and 5.6 (4.2-7.5) mg./kg. and 6 mg./kg. | 3.7 (2.4-5.7) mg./kg.
